Several values for one entry are separate records, joined by “and”; a condition that tells them apart may be missing. Identical values can stand only once.
Test system: 885512-296-R-J2-PDC complex spheroid growth, % test/control
Experiment: Anticancer human tumor 885512-296-R-J2-PDC patient-derived breast carcinoma cell line growth inhibition [Asc]
Details: for viability, T/C: stronger effect = lower value
Experimental: Multicellular complex tumor spheroid response to apoptosis pathway targeting inhibitors Alrizomadlin, Pelcitoclax, and Dasminapant in combination with a variety of drugs and investigational agents in selected tumor cell lines
The MDM2 inhibitor alrizomadlin, the Bcl-2/Bcl-xL inhibitor pelcitoclax, and the IAPs inhibitor dasminapant were evaluated both individually and in combination with standard of care and investigational anticancer small molecules within a complex spheroid model of solid tumors. . Complex spheroids include a stromal component modeled by human endothelial cells (HUVEC) and fibroblasts modeled by human mesenchymal stem cells (MSCs). The concentration ranges selected for each drug and investigational agent were based upon clinically achievable concentrations if the clinical Cmax of the agent was known.
Compounds. The drugs and investigational agents: alrizomadlin (APG-115; NSC831270), pelcitoclax (APG-1252; NSC835773), dasminapant (APG-1387;NSC834197), TAK-243 (NSC785004), copanlisib (NSC809693), olaparib (NSC753686), talazoparib (NSC767125), cobimetinib (NSC 768068), eltanexor (KPT-8602, NSC 794443), abemaciclib (NSC 768073), sotorasib (NSC818433), adagrasib (NSC 831453), MRTX-1133 (NSC 836407), Iadademestat (ORY1001, NSC 806812), and RMC-4630 (NSC839698), were obtained from the NCI Developmental Therapeutics Program Chemical Repository. The FDA-approved anticancer drug set is available from the Developmental Therapeutics Program at https://dtp.cancer.gov/organization/dscb/obtaining/available plates.htm. […] The stock solutions were prepared in dimethyl sulfoxide (DMSO, Sigma-Aldrich, St. Louis, MO, cat. D2650) at 800-fold the tested concentration and stored at -70 degrees C prior to their use. All drugs and investigational agents were tested over a range starting from a high concentration at or near the clinical Cmax and decreasing in half-log increments. If the clinical Cmax for an agent had not been determined, the highest concentration tested was 10 microM.
The patient-derived cancer (PDC) cell lines include five colon adenocarcinomas: 186277-243-T-J2-PDC, 616215-338-R-J1-PDC, 439559-082-T-J2-PDC, 463943-066-T-J2-PDC, and 519858-162-T-J1-PDC; three pancreatic carcinomas: 323965-272-R-J2-PDC, 521955-158-R6-J3-PDC, and 521955-158-R2-J5-PDC; two uterine sarcomas: 327498-152-R-J2-PDC and 993429-296-R-J1-PDC; two rhabdomyosarcomas: 755483-174-R-J1-PDC and 772245-204-R-J1-PDC; two soft tissue sarcomas: 126254-015-R-J1-PDC and 494315-158-R-J1-PDC; two malignant fibrous histiocytomas: 317291-083-R-J1-PDC and 596521-263-R-J1-PDC; two breast carcinomas: 171881-019-R-J1-PDC and 885512-296-R-J2-PDC; and one ovarian carcinoma: 6556581-035-R-J-PDC were obtained from the NCI PDMR, (https://pdmr.cancer.gov). The established cell lines HSSY-2 synovial sarcoma (RRID:CVCL 8719), SYO-1 synovial sarcoma (RRID:CVCL_7146), MPNST malignant peripheral neural sheath tumor were obtained from the Sloan Kettering Institute. The following established cell lines were purchased from the American Type Culture Collection (ATCC, Manassas, VA), Sor the received from the NCI repository:, PANC-1 pancreatic carcinoma (CRL-1469, RRID:CVCL_0480), OVCAR-5 ovarian carcinoma (RRID:CVCL_1628), OVCAR-8 ovarian carcinoma (RRID:CVCL_1629), , MCF-7 breast carcinoma (CRL-12584, RRID:CVCL_0031), MDA-MB-231 breast carcinoma (CRL-12532, RRID:CVCL_0062), NCI-H1876 small cell lung carcinoma (CRL-5902, RRID:CVCL_1503), NCI-H510A small cell lung carcinoma (HTB-184, RRID:CVCL_1565), NCI-H1417 (CRL-5869, RRID:CVCL_1469), and NCI-H196 small cell lung carcinoma (CRL-5823, RRID:CVCL_1509). Dr. Peter Houghton (Greehey Children's Cancer Research Institute, University of Texas Health Science Center, San Antonio, TX) provided Rh-18 rhabdomyosarcoma (RRID:CVCL_1659). Pooled donor human umbilical vein endothelial cells (HUVEC, Lonza, cat. CC-2519) and human mesenchymal stem cells (hMSC, Lonza, cat. PT-2501) were purchased from Lonza (Walkersville, MD).
Cell Culture. […]
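Note: spheroids exposed to compounds for seven days.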
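Throughout, for viability, T/C: 100% = DMSO vehicle control wells.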

Row | Structure (SMILES) | viability, T/C (compound 0.0316 µM) | viability, T/C (compound 0.1 µM) | viability, T/C (compound 0.316 µM) | viability, T/C (compound 1 µM) | viability, T/C (compound 10 µM) | IC50 (curve of compound) | viability, T/C (compound 0.00316 µM) | viability, T/C (compound 0.01 µM) | other results
1 | C#Cc1c(F)ccc2cc(O)cc(-c3ncc4c(N5CC6CCC(C5)N6)nc(OCC56CCCN5CC(F)C6)nc4c3F)c12 (stereo not given) | 93.6% and 96.8% and 95.3% | 103% (2×) and 91.5% | 89.2% and 72.3% and 99.9% | 99.7% and 72.6% and 93.5% | 97.2% and 80.2% and 71.9% | > 10000 nM |  |  | viability, T/C (compound 3.16 µM): 101% and 93.8% and 87.5%
2 | C=C(F)C(=O)N1CCN(c2nc(OCC3CCCN3C)nc3c2CCN(c2cccc4cccc(Cl)c24)C3)CC1CC#N (stereo not given) | 81.9% and 107% and 97.2% | 97% and 114% and 90.5% | 104% and 102% and 94.4% | 97.8% and 113% and 110% | 0.17% and 0.15% and 0.14% | 2040 nM and 2410 nM and 3230 nM |  |  | viability, T/C (compound 3.16 µM): 22% and 31.8% and 50.9%
3 | C=CC(=O)N1CCN(c2nc(=O)n(-c3c(C)ccnc3C(C)C)c3nc(-c4c(O)cccc4F)c(F)cc23)C(C)C1 (stereo not given) | 90.3% and 85.9% and 94.9% | 104% and 108% and 86.1% | 108% and 104% and 90.2% | 108% and 124% and 103% | 60.6% and 59.6% and 78.4% | > 10000 nM |  |  | viability, T/C (compound 3.16 µM): 77.3% and 101% and 95.2%
4 | CCN1C(C(=O)NC23CCC(C(=O)O)(CC2)CC3)C(c2cccc(Cl)c2F)C2(C(=O)Nc3cc(Cl)ccc32)C12CCCCC2 (stereo not given) |  |  |  |  |  | 2830 nM and > 3000 nM |  |  | viability, T/C (compound 0.00949 µM): 94.5% and 78.9%; viability, T/C (compound 0.0949 µM): 95.6% [middle of 15 runs]; viability, T/C (compound 0.949 µM): 71.9% [middle of 15 runs]; viability, T/C (compound 3 µM): 46.6% [middle of 15 runs]
5 | CCN1CCN(Cc2ccc(Nc3ncc(F)c(-c4cc(F)c5nc(C)n(C(C)C)c5c4)n3)nc2)CC1 | 92.8% and 77.8% and 104% | 80.7% and 77.2% and 93% | 79.6% and 71.2% and 79.3% | 61.1% and 65% and 73.3% |  | > 1000 nM | 89.4% and 83.8% and 88.3% | 107% and 91.6% and 85.9% | 
6 | CNC(C)C(=O)NC1CN(S(=O)(=O)c2cccc(S(=O)(=O)N3CCC4CCC(C(=O)NC(c5ccccc5)c5ccccc5)N4C(=O)C(NC(=O)C(C)NC)C3)c2)CCC2CCC(C(=O)NC(c3ccccc3)c3ccccc3)N2C1=O (stereo not given) |  |  |  |  |  | > 1000 nM | 84.1% and 81% |  | IC50 (compound alone, run of 10/03/2022): > 1000 nM
7 | COc1c(OCCCN2CCOCC2)ccc2c3n(c(=NC(=O)c4cnc(N)nc4)nc12)CCN3 | 86.8% and 80.5% and 89.4% | 74.3% and 76% and 89% | 43.6% and 43.9% and 56.3% | 6.01% and 5.98% and 9.51% |  | 249 nM and 255 nM and 370 nM | 99.3% and 90.1% and 99% | 100% and 92.6% and 92% | 
8 | Cc1c(S(C)(=O)=O)c(-c2cc(F)cc(N3CCN(c4ccc(NS(=O)(=O)c5ccc(NC(CCN6CCC(C(=O)OCCCP(=O)(O)O)CC6)CSc6ccccc6)c(S(=O)(=O)C(F)(F)F)c5)cc4)CC3)c2)c(-c2ccc(Cl)cc2)n1C(C)C (stereo not given) |  | 84.8% [middle of 14 runs] | 86.5% [middle of 14 runs] | 88.8% [middle of 14 runs] | 114% [middle of 14 runs] |  |  |  | IC50 (compound alone, run of 09/27/2022): > 10000 nM
9 | Cc1nc(N2CCC3(CC2)COC(C)C3N)c(CO)nc1Sc1ccnc(N)c1Cl (stereo not given) |  |  |  |  |  | 408 nM and 453 nM and 373 nM |  |  | viability, T/C (compound 0.00949 µM): 82.5% and 83.1% and 76%; viability, T/C (compound 0.03 µM): 68.2% and 68.5% and 70.9%; viability, T/C (compound 0.0949 µM): 59.3% and 59.5% and 63.1%; viability, T/C (compound 0.3 µM): 54.2% and 53% and 54%; viability, T/C (compound 0.949 µM): 45.2% and 48% and 39.2%; viability, T/C (compound 3 µM): 36.6% and 38.9% and 36.2%
10 | Cn1ncnc1[C@H]1c2n[nH]c(=O)c3cc(F)cc(c23)N[C@@H]1c1ccc(F)cc1 | 53.5% and 54.3% and 57.9% | 31.4% and 38.2% and 34.5% |  |  |  | 32.3 nM and 43.3 nM and 42.2 nM | 71.1% and 82.5% and 93.2% | 70.2% and 73% and 67.9% | viability, T/C (compound 0.000316 µM): 101% and 86.7% and 96.2%; viability, T/C (compound 0.001 µM): 86.5% and 84.3% and 90.5%
11 | NC(=O)C(=Cn1cnc(-c2cc(C(F)(F)F)cc(C(F)(F)F)c2)n1)c1cncnc1 |  |  |  |  |  | 45.7 nM and 48.2 nM and 54.2 nM |  |  | viability, T/C (compound 0.000949 µM): 87.5% and 102% and 84.6%; viability, T/C (compound 0.003 µM): 85.7% and 110% and 93.3%; viability, T/C (compound 0.00949 µM): 101% and 108% and 96.6%; viability, T/C (compound 0.03 µM): 74.1% and 79.4% and 91.7%; viability, T/C (compound 0.0949 µM): 8.08% and 8.06% and 10.7%; viability, T/C (compound 0.3 µM): 3% and 0.88% and 1.21%
12 | NC1CCC(NC2CC2c2ccccc2)CC1 (stereo not given) | 130% and 120% and 127% | 122% and 110% and 125% |  |  |  | > 100 nM | 118% and 117% and 122% | 127% and 125% and 122% | viability, T/C (compound 0.000316 µM): 128% and 119% and 118%; viability, T/C (compound 0.001 µM): 129% and 116% and 126%
13 | O=C(c1cc(Cc2n[nH]c(=O)c3ccccc23)ccc1F)N1CCN(C(=O)C2CC2)CC1 | 99.2% and 96.5% and 98% | 113% and 117% and 108% | 102% and 115% and 97.6% | 98.8% and 98.3% and 107% | 19.2% and 17.5% and 20.8% | 5070 nM and 4970 nM and 5400 nM |  |  | viability, T/C (compound 3.16 µM): 71.3% and 71.5% and 75.3%
14 | O=C(c1ccc(F)c(F)c1Nc1ccc(I)cc1F)N1CC(O)([C@@H]2CCCCN2)C1 | 73.9% and 62.5% and 68.7% | 69.7% and 54.8% and 47.7% | 45.6% and 36.5% and 35.7% | 18.4% and 15.1% and 17.1% |  | 255 nM and 113 nM and 102 nM | 94% and 88.7% and 94.3% | 89.3% and 77.1% and 88.9% | 

From PubChem BioAssay AID1963447 (Molecular Pharmacology Branch, DTP, NCI, 2024)
